This note sets out measurements from paper PMC8571316 (Scientific Reports, 2021).

Assay [1] has as its target T1, SARS-CoV-2 S1 protein (Severe acute respiratory syndrome coronavirus 2, UniProt P0DTC2).
T1 construct: immobilized SARS-CoV-2 S1 protein (His-tag, #S1N-C52H3, Acro Biosystems); His-tag; purchased Acro Biosystems S1N-C52H3
The assay can be described thus: biochemical. Type of assay: binding. Conditions: for kon: read-out: S1 Protein in Binding Buffer ka (1/Ms); for koff: read-out: S1 Protein in Binding Buffer kdis (1/s).

Assay [2] concerns the target T1, SARS-CoV-2 S1 protein. It is filed as binding.

Peptide text beside a SMILES is read from it. * marks the point of attachment. Biotin = O=C1N[C@H]2[C@H](CS[C@H]2CCCCC(=O)*)N1; PEG4 = NCCOCCOCCOCCOCCC(=O)O

With `CC(C)C[C@H](NC(=O)[C@H](CC(=O)O)NC(=O)[C@H](CCC(=O)O)NC(=O)[C@H](Cc1c[nH]c2ccccc12)NC(=O)[C@H](CCC(=O)O)NC(=O)[C@H](CC(C)C)NC(=O)[C@H](CC(N)=O)NC(=O)[C@H](Cc1ccccc1)NC(=O)[C@@H](NC(=O)[C@H](Cc1ccccc1)NC(=O)[C@H](CC(C)C)NC(=O)[C@H](Cc1ccccc1)NC(=O)[C@H](CC(C)C)NC(=O)[C@@H](NC(=O)[C@H](Cc1c[nH]c2ccccc12)NC(=O)[C@H](CC(=O)O)NC(=O)CCOCCOCCOCCOCCNC(=O)CCCC[C@@H]1SC[C@@H]2NC(=O)N[C@@H]21)[C@@H](C)O)C(C)C)C(=O)N[C@@H](Cc1ccccc1)C(=O)N[C@@H](Cc1ccc(O)cc1)C(=O)O` [Peptide P89] ({Biotin-PEG4}-DWTLFLFVFNLEWEDLFY-OH; C-terminus assumed), in assay [1], the kon amounted to 7800 M⁻¹ s⁻¹ and the koff was 0.000969 s⁻¹. Moreover, the “binding to S1 protein in ELISA-like assay (in words)” value (“binding to S1 protein” for short) in assay [2] is “higher binding affinity than the original ACE2 fragment (SBP1)”.

In the case of `CC[C@H](C)[C@H](NC(=O)[C@H](CCC(=O)O)NC(=O)[C@H](Cc1ccc(O)cc1)NC(=O)[C@H](Cc1ccc(O)cc1)NC(=O)[C@H](CCSC)NC(=O)[C@H](Cc1c[nH]cn1)NC(=O)[C@H](CCSC)NC(=O)[C@H](Cc1c[nH]c2ccccc12)NC(=O)[C@H](CCCCN)NC(=O)[C@H](CC(=O)O)NC(=O)[C@H](Cc1c[nH]c2ccccc12)NC(=O)[C@H](CCC(=O)O)NC(=O)[C@@H](NC(=O)[C@H](CCCCN)NC(=O)CCOCCOCCOCCOCCNC(=O)CCCC[C@@H]1SC[C@@H]2NC(=O)N[C@@H]21)[C@@H](C)O)C(=O)N[C@@H](Cc1ccccc1)C(=O)N[C@@H](Cc1ccc(O)cc1)C(=O)N[C@@H](CCC(=O)O)C(=O)N[C@@H](CC(=O)O)C(=O)O` [Peptide P100] ({Biotin-PEG4}-KTEWDKWMHMYYEIFYED-OH; C-terminus assumed), in assay [1], the kon worked out at 3930 M⁻¹ s⁻¹ and the koff worked out at 0.000728 s⁻¹. In assay [2], the “binding to S1 protein” value was “higher binding affinity than the original ACE2 fragment (SBP1)”.

For `CC[C@H](C)[C@H](NC(=O)[C@H](CC(=O)O)NC(=O)[C@H](Cc1ccccc1)NC(=O)[C@H](CC(N)=O)NC(=O)CCOCCOCCOCCOCCNC(=O)CCCC[C@@H]1SC[C@@H]2NC(=O)N[C@@H]21)C(=O)N[C@@H](CC(C)C)C(=O)N[C@@H](CC(C)C)C(=O)N[C@@H](Cc1ccccc1)C(=O)N[C@H](C(=O)N[C@@H](Cc1ccccc1)C(=O)N[C@@H](CC(N)=O)C(=O)N[C@@H](Cc1ccc(O)cc1)C(=O)N[C@@H](CCC(=O)O)C(=O)N[C@@H](CCSC)C(=O)N[C@@H](CCC(=O)O)C(=O)N[C@@H](CC(=O)O)C(=O)N[C@@H](CCCCN)C(=O)N[C@@H](Cc1ccccc1)C(=O)N[C@@H](Cc1ccc(O)cc1)C(=O)O)C(C)C` [Peptide P168] ({Biotin-PEG4}-NFDILLFVFNYEMEDKFY-OH; C-terminus assumed), in assay [1], the kon stood at 7490 M⁻¹ s⁻¹ and the koff turned out to be 0.00107 s⁻¹. Also, in assay [2], the “binding to S1 protein” value was “higher binding affinity than the original ACE2 fragment (SBP1)”.

As for `CC[C@H](C)[C@H](NC(=O)[C@@H](NC(=O)[C@H](Cc1ccc(O)cc1)NC(=O)[C@H](Cc1ccccc1)NC(=O)[C@H](Cc1ccc(O)cc1)NC(=O)[C@@H](NC(=O)[C@H](CCC(=O)O)NC(=O)[C@H](CCSC)NC(=O)[C@H](Cc1c[nH]c2ccccc12)NC(=O)[C@H](Cc1c[nH]cn1)NC(=O)[C@H](CO)NC(=O)[C@H](Cc1ccccc1)NC(=O)[C@H](CCSC)NC(=O)[C@H](CC(=O)O)NC(=O)[C@H](Cc1c[nH]c2ccccc12)NC(=O)[C@H](CC(=O)O)NC(=O)[C@@H](NC(=O)[C@H](CCCCN)NC(=O)CCOCCOCCOCCOCCNC(=O)CCCC[C@@H]1SC[C@@H]2NC(=O)N[C@@H]21)[C@@H](C)O)[C@@H](C)CC)C(C)C)C(=O)O` [Peptide P180] ({Biotin-PEG4}-KTDWDMFSHWMEIYFYVI-OH; C-terminus assumed), in assay [1], the kon turned out to be 3830 M⁻¹ s⁻¹ and the koff was determined as 0.000929 s⁻¹. For the same molecule, the “binding to S1 protein” value in assay [2] is “higher binding affinity than the original ACE2 fragment (SBP1)”.
